Results taken from patent publication US20100063583A1, “USE OF SOLUBLE EPOXIDE HYDROLASE INHIBITORS IN THE TREATMENT OF INFLAMMATORY VASCULAR DISEASES” (Arete Therapeutics, Inc., priority 2008, published 2010).
Entries after “also recorded” stand apart in the source; their conditions may differ.

Tests used:
[1] = test system: angiotensin II infused apolipoprotein E deficient mice; experiment: Angiotensin II-induced abdominal aortic aneurysm formation in apoE deficient mice; assay type: in vivo
Description: (§1) Six-month old apolipoprotein E deficient mice were chronically infused with angiotensin II (1.44 mg/Kg/day) for 4 weeks to induce an abdominal aortic aneurysm (AAA) and accelerate atherosclerosis development. The mice were treated with Compound 2 (1.5 g/L in drinking water) or vehicle for 4 weeks. […] These effects were associated with a reduction of serum lipid, IL-6, murine IL-8 KC and IL-1α, and down-regulation of gene expressions of ICAM-1, VCAM-1 and IL-6 in the arterial wall. […] The attendant down-regulation of inflammatory mediators and lipid lowering effects may both contribute to the observed vascular protective effects.
(§2) Six-month old male apoE deficient mice (The Jackson Laboratory, Bar Harbor, Me.) fed a normal chow (Harlan Teklad diet #2018, Harlan Laboratories, Inc., Indianapolis, Ind.) were used in this study. Baseline blood pressure and body weight were measured before surgery. Animals were anesthetized by inhalation of 2% isoflurane. The left common carotid artery was carefully dissected via a midline neck incision under a dissecting microscope, and then ligated with a 6-0 silk ligature just proximal to its bifurcation. At the time of ligation, a minipump (model 2004, Durect Corp., Cupertino, Calif.) filled with Ang II (1.44 mg/Kg/day, Phoenix Pharmaceuticals, Burlingame, Calif.) was implanted subcutaneously. The animals were randomly divided into 2 groups; Vehicle: drinking water containing 5% hydroxypropyl-beta-cyclodextrin (HPBCD) or Compound 2 in drinking water containing 1.5 mg/mL Compound 2 in 5% HPBCD. Each experimental group included 11 animals. After 4 weeks of Ang II infusion, systolic blood pressure was measured in conscious mice using a tail-cuff system (Kent Scientific Corporation, Torrington, Conn.), and the animals were euthanized. Blood samples were collected via cardiac puncture for the measurement of a serum cholesterol profile (IDEXX Veterinary Services, West Sacramento, Calif.) and serum inflammatory panel (Murigenics, Hayward, Calif.) using a mouse cytokine/chemokine panel kit (Millipore, Billerica, Mass.), and tissues were removed for analysis (see below).
Chronic infusion of Ang II induced aneurysm formation in the abdominal aorta in 7 of 11 (64%) control apoE deficient mice. Treatment with Compound 2 reduced the incidence of aneurysm formation to 18% (2 of 11). […] There was no type VI aneurysm found in this study.
There were foci of acute hemorrhage present in the intima. The intima was occasionally disrupted by plaques of Mac-3-positive foam cells on the luminal side of the internal elastic lamina. […] The thickness of the media was increased by extracellular matrix depositing between smooth muscle bundles and stained with trichrome as collagen. Elastin fibers in the media were discontinuous and irregularly oriented. The adventitia was markedly thickened by extracellular matrix that was predominately collagen. There was a modest increase in adventitial cellularity including fibroblasts and Mac-3-positive mononuclear cells. […] These vessels did have medial changes including collagen deposition and some increase in elastin fibers, but the internal elastic lamina generally remained intact and retained a distinctive media of smooth muscle.

[2] = test system: angiotensin II infused apolipoprotein E deficient mice; experiment: Atherosclerotic lesion development in aortic arch and non-ligated right carotid artery of Ang II infused apoE deficient mice; assay type: in vivo; details: vs vehicle
Description: as §1
as §2, with “Blood samples were collected via cardiac puncture for the measurement of a serum cholesterol profile (IDEXX Veterinary Services, West Sacramento, Calif.) and serum inflammatory panel (Murigenics, Hayward, Calif.) using a mouse cytokine/chemokine panel kit (Millipore, Billerica, Mass.), and tissues were removed for analysis (see below).” left out

[3] = test system: angiotensin II infused apolipoprotein E deficient mice; experiment: Ligation-induced vascular remodeling in the left carotid artery; assay type: in vivo
Description: as §2, with “Blood samples were collected via cardiac puncture for the measurement of a serum cholesterol profile (IDEXX Veterinary Services, West Sacramento, Calif.) and serum inflammatory panel (Murigenics, Hayward, Calif.) using a mouse cytokine/chemokine panel kit (Millipore, Billerica, Mass.), and tissues were removed for analysis (see below).” left out
Ligation of the left carotid arteries for four weeks induced vascular remodeling, including neointima formation and adventitial proliferation, leading to expansive remodeling as measured by enlargement of vessel diameter. […]

[4] = test system: VCAM-1, ICAM-1, IL-6, IL-1α and PPARs gene expression in the ascending aortic tissue; experiment: Expression of pro-inflammatory genes in ascending aortic tissue; assay type: in vivo, mice; details: vs vehicle
Description: as §2
(§3) Using the animal model as reported in Martin-McNulty B, et al., 17 Beta-estradiol attenuates development of angiotensin II-induced aortic abdominal aneurysm in apolipoprotein E-deficient mice. Arterioscler Thromb Vasc Biol. 2003; 23(9):1627-1632 and Tham D M, et al., Angiotensin II is associated with activation of NF-kappaB-mediated genes and downregulation of PPARs. Physiol Genomics.

[5] = test system: circulating IL-6, murine IL-8-KC, IL-1α, serum lipid; experiment: Serum inflammatory panel and serum lipid in Ang II infused apoE deficient mice; assay type: in vivo
Description: as §2, §3

[6] = ascending aortic tissue / arterial wall

O=C(Nc1ccc(OC(F)(F)F)cc1)NC1CCN(C(=O)c2cccnc2)CC1 [Compound 2, 1-(1-nicotinoylpiperidin-4-yl)-3-(4-(trifluoromethoxy)phenyl)urea] was tested, and the “average outer diameter of the suprarenal aorta” value ([1]; 1.5 mg/mL in drinking water, 4 weeks, vs vehicle group) was “significantly smaller”, the “AAA formation (rate), effect in words” value ([1]; 1.5 g/L in drinking water, 4 weeks Ang II infusion, vs vehicle) was “significantly reduced; also recorded: partially prevented” and the “incidence of aneurysm formation” value ([1]; Compound 2 1.5 mg/mL in drinking water (5% HPBCD), 4 weeks Ang II 1.44 mg/Kg/day, 2 of 11 mice, vehicle 64%) was 18%. The “aneurysm severity measured by category score” value ([1]; mice that developed aneurysm, vehicle group majority type III) was “majority with type 0 and I”, the “adventitia thickness (histology)” value ([1]; vs vehicle group (markedly thickened), 4 weeks) was “relatively thin” and the “intimal plaques in aorta (histological staining)” value ([1]; vs vehicle group, 4 weeks) was “fewer intimal plaques”. The “macrophage and iron accumulation in the adventitia” value ([1]; vs vehicle group, 4 weeks) was “less macrophage and no iron accumulation”, the “macrophage and iron accumulation in the intima (Mac-3, Prussian blue)” value ([1]; vs vehicle group, 4 weeks) was “no evidence of macrophage and iron accumulation” and the “atherosclerotic lesion area (overall)” value ([2]; 1.5 g/L in drinking water, 4 weeks Ang II infusion) was “significantly reduced”. For the same compound, the “atherosclerotic lesion size/area in the aortic arch” value ([2]; 4 weeks) was “significantly reduced”, the “atherosclerotic lesion size/area in the carotid artery” value ([2]; non-ligated right carotid artery, 4 weeks) was “significantly reduced” and the “average diameter of the ligated carotid arteries” value ([3]; Compound 2 vs vehicle group, four weeks) was “not significantly different”. For the same compound, the “ligation-induced vascular remodeling (neointima formation, adventitial proliferation, expansive remodeling)” value ([3]; left carotid artery ligated four weeks) was “not affected”, the ICAM-1 gene expression [4, 6] was “down-regulation; also recorded: significantly reduced” and the IL-6 gene expression [4, 6] was “down-regulation; also recorded: significantly reduced”. For the same compound, the VCAM-1 gene expression [4, 6] was “down-regulation; also recorded: significantly reduced”, the IL-1α gene expression ([4]; ascending aortic tissue) was “did not significantly affect” and the PPARs gene expression ([4]; ascending aortic tissue) was “did not significantly affect”. The serum lipid ([5]; 4 weeks treatment) was “reduction”, the “circulating protein level of IL-6” value ([5]; vs vehicle group) was “reduction; also recorded: significantly lower” and the “circulating protein level of murine IL-8-KC” value ([5]; vs vehicle group) was “reduction; also recorded: significantly lower”. The “serum IL-1α” value ([5]; vs vehicle group) was “reduction; also recorded: reduced”.
